# Data reported in ChEMBL document CHEMBL3044609, “Synthesis and Acaricidal Activities of New 2-Polyfluorophenylbenzazole Derivatives” (2002).
# Activity calls are given as the source filed them. The calls are words filed in the database; no cut-off is given here.
# Assays:
# [1] = test system: Tetranychus urticae; assay: Acaricidal activity against Tetranychus urticae (two-spotted spider mite) in compound treated snap bean leaves assessed as egg mortality measured after 2 days by leaf disk method; assay type: functional; conditions: foliar, 48 h
# [2] = test system: Tetranychus urticae; assay: Acaricidal activity against Tetranychus urticae (two-spotted spider mite) in compound treated snap bean leaves assessed as adult mortality measured after 2 days by leaf disk method; assay type: functional; conditions: foliar, 48 h
# [3] = test system: Tetranychus urticae; assay: Acaricidal activity against Tetranychus urticae (two-spotted spider mite) on strawberry plant assessed as average number of adult females mites at 1000 fold dilutions measured after 30 days (reference value: 100%); assay type: functional
# [4] = test system: Tetranychus urticae; assay: Acaricidal activity against Tetranychus urticae (two-spotted spider mite) on strawberry plant assessed as average number of adult females mites at 1000 fold dilutions measured after 23 days (reference value: 100%); assay type: functional
# [5] = test system: Tetranychus urticae; assay: Acaricidal activity against Tetranychus urticae (two-spotted spider mite) on strawberry plant assessed as average number of adult females mites at 1000 fold dilutions measured after 16 days (reference value: 100%); assay type: functional
# [6] = test system: Tetranychus urticae; assay: Acaricidal activity against Tetranychus urticae (two-spotted spider mite) on strawberry plant assessed as average number of adult females mites at 1000 fold dilutions measured after 8 days (reference value: 100%); assay type: functional
# [7] = test system: Tetranychus urticae; assay: Acaricidal activity against Tetranychus urticae (two-spotted spider mite) on strawberry plant assessed as average number of adult females mites at 1000 fold dilutions measured after 3 days (reference value: 100%); assay type: functional
# [8] = test system: Tetranychus urticae; assay: Acaricidal activity against kelthane-sensitive strain Tetranychus urticae (two-spotted spider mite) in compound treated snap bean leaves assessed as adult mortality measured after 2 days by leaf disk method; assay type: functional; conditions: foliar, 48 h
# [9] = test system: Tetranychus urticae; assay: Acaricidal activity against kelthane-resitant strain Tetranychus urticae (two-spotted spider mite) in compound treated snap bean leaves assessed as adult mortality measured after 2 days by leaf disk method; assay type: functional; conditions: foliar, 48 h
# [10] = test system: Tetranychus urticae; assay: Ratio of LC50 for kelthane-resitant strain Tetranychus urticae (two-spotted spider mite) to LC50 for kelthane-sensitive strain Tetranychus urticae (two-spotted spider mite) assessed as egg mortality measured after 2 days by leaf disk method; assay type: functional
# [11] = test system: Tetranychus urticae; assay: Acaricidal activity against kelthane-sensitive strain Tetranychus urticae (two-spotted spider mite) in compound treated snap bean leaves assessed as egg mortality measured after 2 days by leaf disk method; assay type: functional; conditions: foliar, 48 h
# [12] = test system: Tetranychus urticae; assay: Acaricidal activity against kelthane-resitant strain Tetranychus urticae (two-spotted spider mite) in compound treated snap bean leaves assessed as egg mortality measured after 2 days by leaf disk method; assay type: functional; conditions: foliar, 48 h
# [13] = test system: Tetranychus urticae; assay: Ratio of LC50 for kelthane-resitant strain Tetranychus urticae (two-spotted spider mite) to LC50 for kelthane-sensitive strain Tetranychus urticae assessed as adult mortality measured after 2 days by leaf disk method; assay type: functional
# [14] = test system: Panonychus citri; assay: Acaricidal activity against Panonychus citri in compound treated lemon leaf assessed as adult mortality; assay type: functional, organism-based
# [15] = test system: Tetranychus urticae; assay: Acaricidal activity against Tetranychus urticae (two-spotted spider mite) on strawberry plant assessed as average number of adult females mites at 800 fold dilutions measured after 30 days (reference value: 100%); assay type: functional
# [16] = test system: Tetranychus urticae; assay: Acaricidal activity against Tetranychus urticae (two-spotted spider mite) on strawberry plant assessed as average number of adult females mites at 800 fold dilutions measured after 23 days (reference value: 100%); assay type: functional
# [17] = test system: Tetranychus urticae; assay: Acaricidal activity against Tetranychus urticae (two-spotted spider mite) on strawberry plant assessed as average number of adult females mites at 800 fold dilutions measured after 16 days (reference value: 100%); assay type: functional
# [18] = test system: Tetranychus urticae; assay: Acaricidal activity against Tetranychus urticae (two-spotted spider mite) on strawberry plant assessed as average number of adult females mites at 800 fold dilutions measured after 8 days (reference value: 100%); assay type: functional
# [19] = test system: Tetranychus urticae; assay: Acaricidal activity against Tetranychus urticae (two-spotted spider mite) on strawberry plant assessed as average number of adult females mites at 800 fold dilutions measured after 3 days (reference value: 100%); assay type: functional
# [20] = test system: Tetranychus urticae; assay: Acaricidal activity against Tetranychus urticae (two-spotted spider mite) on strawberry plant assessed as average number of adult females mites at 400 fold dilutions measured after 30 days (reference value: 100%); assay type: functional
# [21] = test system: Tetranychus urticae; assay: Acaricidal activity against Tetranychus urticae (two-spotted spider mite) on strawberry plant assessed as average number of adult females mites at 400 fold dilutions measured after 23 days (reference value: 100%); assay type: functional
# [22] = test system: Tetranychus urticae; assay: Acaricidal activity against Tetranychus urticae (two-spotted spider mite) on strawberry plant assessed as average number of adult females mites at 400 fold dilutions measured after 16 days (reference value: 100%); assay type: functional
# [23] = test system: Tetranychus urticae; assay: Acaricidal activity against Tetranychus urticae (two-spotted spider mite) on strawberry plant assessed as average number of adult females mites at 400 fold dilutions measured after 8 days (reference value: 100%); assay type: functional
# [24] = test system: Tetranychus urticae; assay: Acaricidal activity against Tetranychus urticae (two-spotted spider mite) on strawberry plant assessed as average number of adult females mites at 400 fold dilutions measured after 3 days (reference value: 100%); assay type: functional
Compound,LC50 [1] [µg/mL],LC50 [2] [µg/mL],further results
Fc1cc(-c2nc3ccccc3o2)c(F)c(F)c1F,351,151,
CCc1nn(C)c(C(=O)NCc2ccc(C(C)(C)C)cc2)c1Cl [TEBUFENPYRAD],,,Activity [3]: 4.5%; Activity [4]: 13.5%; Activity [5]: 5.6%; Activity [6]: 7.8%; Activity [7]: 4.3%
Fc1ccc(-c2nc3ccccc3s2)cc1F,> 500,< 125,
Fc1cc(-c2nc3ccc(Br)cc3s2)c(F)c(F)c1F,555,93,
Fc1c(F)c(F)c(-c2nc3ccccc3s2)c(F)c1F [2-(PERFLUOROPHENYL)BENZO[D]THIAZOLE],124,26,
Cc1cc(C)c2oc(-c3cc(F)c(F)c(Cl)c3F)nc2c1,> 500,< 31,
Fc1cc(-c2nc3cc(Cl)ccc3o2)c(F)c(Cl)c1F,173,37,
Fc1cc(-c2nc3ccccc3s2)c(F)c(F)c1F,205,102,
Fc1cc(-c2nc3ccccc3s2)c(F)c(Cl)c1F,225,35,
Cc1ccc2oc(-c3ccccc3)nc2c1,> 500,> 500,
Cc1ccc2oc(-c3cc(F)c(F)c(F)c3F)nc2c1,> 500,19,
c1ccc(-c2nc3ccccc3o2)cc1 [2-PHENYLBENZO[D]OXAZOLE],> 500,> 500,
Cc1ccc2oc(-c3cc(F)c(F)cc3F)nc2c1,173,174,
Cc1ccc2oc(-c3ccccc3F)nc2c1,> 500,88,
Cc1ccc2nc(-c3cc(F)c(F)c(F)c3F)sc2c1,205,75,
Cc1ccc2nc(-c3cc(F)c(F)c(Cl)c3F)sc2c1,287,155,
Cc1ccc2oc(-c3ccc(F)cc3)nc2c1,> 500,> 500,
OC(c1ccc(Cl)cc1)(c1ccc(Cl)cc1)C(Cl)(Cl)Cl [DICOFOL],,,LC50 [8]: 15.9 µg/mL; LC50 [9]: 296 µg/mL; RatioLC50 [10]: 1.13; LC50 [11]: 80.7 µg/mL; LC50 [12]: 90.9 µg/mL; RatioLC50 [13]: 18.65
Fc1cc(-c2nc3cc(Cl)ccc3o2)c(F)c(F)c1F,202,100,
c1ccc(-c2nc3ccccc3s2)cc1 [2-PHENYLBENZO[D]THIAZOLE],> 500,211,
Cc1ccc2nc(-c3cc(F)c(F)c(Cl)c3F)oc2c1,> 500,48,
Cc1ccc2oc(-c3cc(F)c(F)c(Cl)c3F)nc2c1,154,35,LC50 [8]: 71.6 µg/mL; LC50 [9]: 121 µg/mL; Activity [14]: Active; Activity [15]: 65%; Activity [16]: 51.4%; Activity [17]: 75.3%; Activity [18]: 86.5%; Activity [19]: 93.7%; Activity [20]: 43.9%; Activity [21]: 38.9%; Activity [22]: 71.1%; Activity [23]: 108.8%; Activity [24]: 93.3%; RatioLC50 [10]: 0.84; LC50 [11]: 20.4 µg/mL; LC50 [12]: 17.1 µg/mL; RatioLC50 [13]: 1.69
Cc1ccc2oc(-c3cccc(F)c3)nc2c1,> 500,383,
Fc1cc(-c2nc3ccccc3o2)c(F)c(Cl)c1F,257,66,
